Reference: patent publication EP4342885A1, “N-(3-(AMINOMETHYL)-PHENYL)-5-(4-PHENYL)-5-(TRIFLUOROMETHYL)-4,5-DIHYDROISOXAZOL-3-AMINE DERIVATIVES AND SIMILAR COMPOUNDS AS PESTICIDES” (priority 2022, dated 2024)

How the values were obtained:
Format in all cases: in vivo
[1] = tested on: Myzus persicae; assay: Green peach aphid (Myzus persicae), mixed life stages, systemic test via artificial diet under membrane; conditions: 72 h, read-out: mortality in comparison with untreated controls
Source text: For evaluating control of Green Peach Aphid through systemic means the test unit consisted of 96-well-microtiter plates containing liquid artificial diet under an artificial membrane. The compounds were formulated using a solution containing 75% v/v water and 25% v/v DMSO. Different concentrations of formulated compounds were pipetted into the aphid diet, using a custom-built pipette, at two replications. After application, 5 - 8 adult aphids were placed on the artificial membrane inside the microtiter plate wells. The aphids were then allowed to suck on the treated aphid diet and incubated at about 23 ± 1°C and about 50 ± 5 % relative humidity for 3 days. Aphid mortality and fecundity was then visually assessed.

[2] = tested on: Plutella xylostella; assay: Diamond back moth (Plutella xylostella) control, 96-well microtiter plate insect diet with eggs; conditions: 120 h, read-out: mortality in comparison with untreated controls
Experimental: For evaluating control of […] (Plutella xylostella) the test unit consisted of 96-well-microtiter plates containing an insect diet and 15-25 P. xylostella eggs.
The compounds or mixtures were formulated using a solution containing 75% water and 25% DMSO. Different concentrations of formulated compounds or mixtures were sprayed onto the insect diet at 5µl, using a custom-built micro atomizer, at two replications.
After application, microtiter plates were incubated at 28 ± 1°C, 80 ± 5 % RH for 5 days. Egg and larval mortality was then visually assessed.

[3] = tested on: Aedes aegypti; assay: whole plant or invertebrate; conditions: 48 h, larval mortality, 2 days, read-out: mortality in comparison with untreated controls
Experimental: For evaluating control of Yellow Fever Mosquito, the test unit consisted of 96-well-microtiter plates containing 200µl of tap water per well and 5-15 freshly hatched A. aegypti larvae. The active compounds were formulated using a solution containing 75% (v/v) water and 25% (v/v) DMSO. Different concentrations of formulated compounds or mixtures were sprayed onto the insect diet at 2.5µl, using a custom-built micro atomizer, at two replications.
After application, microtiter plates were incubated at 28 ± 1°C, 80 ± 5 % RH for 2 days. Larval mortality was then visually assessed.

[4] = tested on: Anthonomus grandis; assay: Boll weevil (Anthonomus grandis) control, 96-well microtiter plate insect diet with eggs; conditions: 120 h, read-out: mortality in comparison with untreated controls
Experimental: For evaluating control of boll weevil, the test unit consisted of 96-well-microtiter plates containing an insect diet and 5-10 A. grandis eggs.
The compounds were formulated using a solution containing 75% v/v water and 25% v/v DMSO. Different concentrations of formulated compounds were sprayed onto the insect diet at 5µl, using a custom-built micro atomizer, at two replications.
After application, microtiter plates were incubated at about 25 ± 1°C and about 75 ± 5 % relative humidity for 5 days. Egg and larval mortality were then visually assessed.

[5] = tested on: Heliothis virescens; assay: Tobacco budworm (Heliothis virescens) control, 96-well microtiter plate insect diet with eggs; conditions: 120 h, read-out: mortality in comparison with untreated controls
Experimental: For evaluating control of Tobacco Budworm, the test unit consisted of 96-well-microtiter plates containing an insect diet and 15-25 H. virescens eggs. The compounds were formulated using a solution containing 75% v/v water and 25% v/v DMSO. Different concentrations of formulated compounds were sprayed onto the insect diet at 10µl, using a custom-built micro atomizer, at two replications. After application, microtiter plates were incubated at about 28 ± 1°C and about 80 ± 5 % relative humidity for 5 days. Egg and larval mortality was then visually assessed.

Measured: mortality at 800 ppm

N#CCC(=O)NCc1cc(NC2=NOC(c3ccc(F)c(Cl)c3)(C(F)(F)F)C2)ccc1Cl (centres unmarked) [I-51]
not listed: [5]
≥ 75%: all other assays above

O=C(NCc1cc(OC2=NOC(c3cc(Cl)c(F)c(Cl)c3)(C(F)(F)F)C2)ccc1F)C1CC1 (centres unmarked) [I-22]
≥ 75%: all assays above

CCC(=O)NCc1cc(NC2=NOC(c3cc(Cl)cc(Cl)c3)(C(F)(F)F)C2)ccc1F (centres unmarked) [I-2]
not listed: [3]
≥ 75%: all other assays above

CS(=O)(=O)N1CC(C(=O)NCc2cc(NC3=NOC(c4ccc(F)c(Cl)c4)(C(F)(F)F)C3)ccc2Cl)C1 (centres unmarked) [I-46]
not listed: [5]
≥ 75%: all other assays above

CS(=O)(=O)NCC(=O)NCc1cc(NC2=NOC(c3ccc(F)c(Cl)c3)(C(F)(F)F)C2)ccc1Cl (centres unmarked) [I-47]
not listed: [5]
≥ 75%: all other assays above

CN(Cc1cc(NC2=NOC(c3cc(Cl)c(F)c(Cl)c3)(C(F)(F)F)C2)ccc1F)C(=O)C1CC1 (centres unmarked) [I-17]
not listed: [1]
≥ 75%: all other assays above

O=C(Cc1ccsc1)NCc1cc(NC2=NOC(c3ccc(F)c(Cl)c3)(C(F)(F)F)C2)ccc1Cl (centres unmarked) [I-44]
not listed: [5]
≥ 75%: all other assays above

O=C(N[C@H]1CCc2ccc(NC3=NOC(c4ccc(F)c(Cl)c4)(C(F)(F)F)C3)cc21)C1CC1 (some centres unmarked) [III-1]
≥ 75%: all assays above

O=C(NCc1cc(NC2=NOC(c3cc(Cl)cc(Cl)c3)(C(F)(F)Cl)C2)ccc1F)C1CC1 (centres unmarked) [I-43]
≥ 75%: all assays above

O=C(CNC(=O)C1CC1)NCc1cc(NC2=NOC(c3ccc(F)c(Cl)c3)(C(F)(F)F)C2)ccc1Cl (centres unmarked) [I-26]
not listed: [5]
≥ 75%: all other assays above

O=C(NCc1cc(NC2=NOC(c3cc(Cl)cc(Cl)c3)(C(F)(F)F)C2)ccc1F)c1ccccn1 (centres unmarked) [I-11]
≥ 75%: [2] | [4]

COCC(=O)NCc1cc(NC2=NOC(c3cc(Cl)cc(Cl)c3)(C(F)(F)F)C2)ccc1F (centres unmarked) [I-9]
≥ 75%: [1] | [4]

CC(C)CC(=O)NCc1cc(NC2=NOC(c3ccc(F)c(Cl)c3)(C(F)(F)F)C2)ccc1Cl (centres unmarked) [I-28]
≥ 75%: all assays above

O=C(CC1OCCO1)NCc1cc(NC2=NOC(c3ccc(F)c(Cl)c3)(C(F)(F)F)C2)ccc1Cl (centres unmarked) [I-33]
≥ 75%: [2] | [3] | [4]

O=C(NCc1cc(NC2=NOC(c3ccc(F)c(Cl)c3)(C(F)(F)F)C2)ccc1Cl)C1CSC1 (centres unmarked) [I-45]
≥ 75%: all assays above

Cc1ccc(NC2=NOC(c3cc(Cl)c(F)c(Cl)c3)(C(F)(F)F)C2)cc1CNC(=O)C1CC1 (centres unmarked) [I-20]
≥ 75%: all assays above

O=C(CC1CC1)NCc1cc(NC2=NOC(c3cc(Cl)cc(Cl)c3)(C(F)(F)F)C2)ccc1F (centres unmarked) [I-6]
not listed: [2]
≥ 75%: all other assays above

CCOC(=O)N(C1=NOC(c2cc(Cl)c(F)c(Cl)c2)(C(F)(F)F)C1)c1ccc(F)c(CNC(=O)C2CC2)c1 (centres unmarked) [I-42]
≥ 75%: all assays above

Cn1ncc(C#N)c1C(=O)NCc1cc(NC2=NOC(c3ccc(F)c(Cl)c3)(C(F)(F)F)C2)ccc1Cl (centres unmarked) [I-37]
≥ 75%: [2] | [3]

N#Cc1ccc(C(=O)NCc2cc(NC3=NOC(c4ccc(F)c(Cl)c4)(C(F)(F)F)C3)ccc2Cl)s1 (centres unmarked) [I-34]
≥ 75%: [2] | [3] | [4]

COCCC(=O)NCc1cc(NC2=NOC(c3cc(Cl)cc(Cl)c3)(C(F)(F)F)C2)ccc1F (centres unmarked) [I-3]
not listed: [2]
≥ 75%: all other assays above

O=C(Cn1cncn1)NCc1cc(NC2=NOC(c3ccc(F)c(Cl)c3)(C(F)(F)F)C2)ccc1Cl (centres unmarked) [I-40]
not listed: [5]
≥ 75%: all other assays above

O=C(NCc1cc(NC2=NOC(c3cc(Cl)cc(Cl)c3)(C(F)(F)F)C2)ccc1F)c1ncon1 (centres unmarked) [I-7]
≥ 75%: [4]

O=C(Cn1cccn1)NCc1cc(NC2=NOC(c3ccc(F)c(Cl)c3)(C(F)(F)F)C2)ccc1Cl (centres unmarked) [I-38]
≥ 75%: [2] | [3] | [4]

O=C(NCc1cc(NC2=NOC(c3ccc(F)c(Cl)c3)(C(F)(F)F)C2)ccc1Cl)C1CC=CC1 (centres unmarked) [I-29]
not listed: [5]
≥ 75%: all other assays above

CON=CC(=O)NCc1cc(NC2=NOC(c3cc(Cl)cc(Cl)c3)(C(F)(F)F)C2)ccc1F (centres unmarked) [I-12]
not listed: [3]
≥ 75%: all other assays above

O=C(Cc1ccccc1)NCc1cc(NC2=NOC(c3ccc(F)c(Cl)c3)(C(F)(F)F)C2)ccc1Cl (centres unmarked) [I-27]
≥ 75%: [3]

O=C(CC1CCS(=O)(=O)C1)NCc1cc(NC2=NOC(c3ccc(F)c(Cl)c3)(C(F)(F)F)C2)ccc1Cl (centres unmarked) [I-49]
≥ 75%: [1] | [3] | [4]

CS(=O)(=O)CC(=O)NCc1cc(NC2=NOC(c3cc(Cl)cc(Cl)c3)(C(F)(F)F)C2)ccc1F (centres unmarked) [I-4]
not listed: [2]
≥ 75%: all other assays above

COC(=O)N1CCCC1C(=O)NCc1cc(NC2=NOC(c3cc(Cl)cc(Cl)c3)(C(F)(F)F)C2)ccc1F (centres unmarked) [I-10]
≥ 75%: [4]

O=C(CN1CCCC1=O)NCc1cc(NC2=NOC(c3ccc(F)c(Cl)c3)(C(F)(F)F)C2)ccc1Cl (centres unmarked) [I-31]
≥ 75%: [1] | [3]
